Where “and” joins values, the source holds several entries; their conditions need not be identical. Equal entries are not always repeated.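 Grown in 96-well plates, cells were treated for 48 hours with each compound at five concentrations. Insufficient inhibition: endpoint recorded as highest concentration tested. The concentration for 50% growth inhibition is given as GI50. TGI: total growth inhibition.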
What was measured:
Assay in all cases: NCI-60 cell line screen, 48 h
[1] = test system: BT-549 breast
[2] = test system: CAKI-1 renal
[3] = test system: HCC-2998 colon
[4] = test system: KM12 colon
[5] = test system: MDA-MB-435
[6] = test system: OVCAR-4 ovarian
[7] = test system: OVCAR-8 ovarian
[8] = test system: SF-539 CNS
[9] = test system: SNB-19 CNS
[10] = test system: UACC-257 melanoma

Structure (SMILES): Oc1ccccc1CNCC12CC3CC(CC(C3)C1)C2
- GI50 [1]: 14 µM
- TGI [1]: 74.8 µM
- GI50 [2]: 37 µM
- TGI [2]: > 100 µM
- GI50 [3]: 12.2 µM
- TGI [3]: 26.9 µM
- GI50 [4]: 23.7 µM
- TGI [4]: 66 µM
- GI50 [5]: 18.6 µM
- TGI [5]: 43.7 µM
- GI50 [6]: 48.8 µM
- TGI [6]: > 100 µM
- GI50 [7]: 79.9 µM
- TGI [7]: > 100 µM
- GI50 [8]: 33.3 µM
- TGI [8]: > 100 µM
- GI50 [9]: 60.3 µM
- TGI [9]: > 100 µM

Structure (SMILES): CCN1C(=O)N(c2ccccc2)C2NC(=S)N(/N=C/C=C/c3ccccc3)C21 (centres undefined)
- GI50 [1]: 0.643 µM
- TGI [1]: > 24.7 µM
- GI50 [2]: 0.269 µM
- TGI [2]: > 100 µM
- GI50 [3]: 0.399 µM
- TGI [3]: > 100 µM
- GI50 [4]: 0.358 µM
- TGI [4]: > 100 µM
- GI50 [5]: 0.0314 µM
- TGI [5]: 0.216 µM
- GI50 [6]: 4.68 µM
- TGI [6]: > 100 µM
- GI50 [7]: 0.429 µM
- TGI [7]: > 100 µM
- GI50 [8]: 0.246 µM
- TGI [8]: 0.854 µM
- GI50 [9]: 0.472 µM
- TGI [9]: > 100 µM
- GI50 [10]: 25 µM
- TGI [10]: > 100 µM

Structure (SMILES): COc1cc(/C=C/C(=O)c2c(C)nc3ccccc3c2/C=C/c2ccc(C)cc2)cc(OC)c1OC
- GI50 [1]: 2.06 µM
- TGI [1]: 4.57 µM
- GI50 [2]: 1.4 µM
- TGI [2]: 3.01 µM
- GI50 [3]: 1.73 µM
- TGI [3]: 3.26 µM
- GI50 [4]: 1.87 µM
- TGI [4]: 3.6 µM
- GI50 [5]: 1.99 µM
- TGI [5]: 4.55 µM
- GI50 [6]: 5.62 µM
- TGI [6]: 52.9 µM
- GI50 [7]: 3.25 µM
- TGI [7]: > 100 µM
- GI50 [8]: 1.92 µM
- TGI [8]: 3.69 µM
- GI50 [9]: 1.69 µM
- TGI [9]: 3.14 µM
- GI50 [10]: 2.71 µM
- TGI [10]: 7.32 µM

Structure (SMILES): COc1cc(/C=N/NC(=O)c2cnn3c2NC(c2ccccc2)C3)ccc1Oc1ccccc1 (centres undefined)
- GI50 [1]: 0.864 µM
- TGI [1]: 3.16 µM
- GI50 [2]: 0.996 µM
- TGI [2]: 10.2 µM
- GI50 [3]: 3.6 µM
- TGI [3]: 30 µM
- GI50 [4]: 0.528 µM
- TGI [4]: 3 µM
- GI50 [5]: 0.293 µM
- TGI [5]: 1.43 µM
- GI50 [6]: 1.41 µM
- TGI [6]: 3.78 µM
- GI50 [7]: 2.57 µM
- TGI [7]: 12.2 µM
- GI50 [8]: 1.03 µM
- TGI [8]: 2.51 µM
- GI50 [9]: 1.43 µM
- TGI [9]: 8.31 µM
- GI50 [10]: 2.91 µM
- TGI [10]: 15.6 µM

Structure (SMILES): Cc1ccc2c(c1)C(C)Cc1c(Cl)ncnc1N2C (centres undefined)
- GI50 [1]: 3 µM
- TGI [1]: 9.74 µM
- GI50 [2]: 3.22 µM
- TGI [2]: > 100 µM
- GI50 [3]: 3.54 µM
- TGI [3]: 18.3 µM
- GI50 [4]: 2.12 µM
- TGI [4]: 7.98 µM
- GI50 [5]: 2.23 µM
- TGI [5]: 5.63 µM
- GI50 [6]: 3.06 µM
- TGI [6]: > 100 µM
- GI50 [7]: 3.77 µM
- TGI [7]: 23.8 µM
- GI50 [8]: 3.85 µM
- TGI [8]: 19 µM
- GI50 [9]: 4.89 µM
- TGI [9]: 49.7 µM
- GI50 [10]: 4.29 µM
- TGI [10]: 46.2 µM

Structure (SMILES): COc1ccc(-n2cc(-c3cc(OC)c(OC)c(OC)c3)nc2SCc2ccccc2)cc1OC
- GI50 [1]: > 82.7 µM
- TGI [1]: > 100 µM
- GI50 [2]: > 96.6 µM
- TGI [2]: > 100 µM
- GI50 [3]: > 100 µM
- TGI [3]: > 100 µM
- GI50 [4]: > 100 µM
- TGI [4]: > 100 µM
- GI50 [5]: > 100 µM
- TGI [5]: > 100 µM
- GI50 [6]: > 81.4 µM
- TGI [6]: > 100 µM
- GI50 [7]: > 83.6 µM
- TGI [7]: > 100 µM
- GI50 [8]: > 100 µM
- TGI [8]: > 100 µM
- GI50 [9]: > 100 µM
- TGI [9]: > 100 µM
- GI50 [10]: 77.9 µM
- TGI [10]: > 100 µM

Structure (SMILES): Nc1c([N+](=O)[O-])cc2c3c(cccc13)CC2
- TGI [1]: > 100 µM
- TGI [2]: > 100 µM
- TGI [3]: > 100 µM
- TGI [4]: > 100 µM
- TGI [5]: > 100 µM
- TGI [6]: > 100 µM
- TGI [7]: > 100 µM
- TGI [8]: > 100 µM
- TGI [9]: > 100 µM
- TGI [10]: > 100 µM

Structure (SMILES): CNC(=O)CC1NC(=O)c2csc(n2)-c2ccc(-c3nc(C4=NC(C(=O)N5CCCC5C(N)=O)CO4)cs3)nc2-c2csc(n2)-c2csc(n2)C(C(C)C)NC(=O)CNC(=O)c2csc(n2)C(C(C)C)NC(=O)c2nc1sc2C (centres undefined)
- GI50 [1]: > 25 µM
- TGI [1]: 4.5 µM and > 25 µM
- GI50 [2]: > 25 µM
- TGI [2]: > 25 µM
- TGI [3]: 2.31 µM
- GI50 [4]: > 25 µM
- TGI [4]: 4.34 µM and > 25 µM
- GI50 [5]: < 0.001 µM
- GI50 [6]: > 25 µM
- TGI [6]: > 25 µM
- GI50 [7]: > 25 µM
- TGI [7]: > 25 µM
- GI50 [8]: > 25 µM
- GI50 [9]: > 25 µM
- TGI [9]: > 25 µM
- GI50 [10]: > 25 µM
- TGI [10]: > 25 µM

Structure (SMILES): Cc1cc(=O)[nH]c2cc3c(c4c(n3Cc3ccc(Cl)cc3Cl)CC(C)(C)CC4=O)c(O)c12
- GI50 [1]: 19.6 µM
- TGI [1]: 64.2 µM
- GI50 [2]: > 100 µM
- TGI [2]: > 100 µM
- GI50 [3]: > 100 µM
- TGI [3]: > 100 µM
- GI50 [4]: > 100 µM
- TGI [4]: > 100 µM
- GI50 [5]: 57.4 µM
- TGI [5]: > 100 µM
- GI50 [6]: > 100 µM
- TGI [6]: > 100 µM
- GI50 [7]: > 100 µM
- TGI [7]: > 100 µM
- GI50 [8]: > 100 µM
- TGI [8]: > 100 µM
- GI50 [9]: 55.8 µM
- TGI [9]: > 100 µM
- GI50 [10]: > 100 µM
- TGI [10]: > 100 µM

Structure (SMILES): COc1ccc(C(=O)/C=C/c2ccc3c(c2)OCO3)c(OCc2ccccc2)c1
- TGI [1]: > 100 µM
- TGI [2]: > 100 µM
- TGI [3]: > 100 µM
- TGI [4]: > 100 µM
- TGI [5]: > 100 µM
- TGI [6]: > 61 µM
- TGI [7]: > 100 µM
- TGI [8]: > 100 µM
- TGI [9]: > 100 µM
- TGI [10]: > 100 µM

Structure (SMILES): Clc1ccc2nnnn2n1
- GI50 [1]: 2.87 µM
- TGI [1]: 9.92 µM
- GI50 [2]: 10.1 µM
- TGI [2]: 22.8 µM
- GI50 [3]: 16.9 µM
- TGI [3]: 40.6 µM
- GI50 [4]: 2.08 µM
- TGI [4]: 4.87 µM
- GI50 [5]: 2.13 µM
- TGI [5]: 5.39 µM
- GI50 [6]: 5.21 µM
- TGI [6]: 17.7 µM
- GI50 [7]: 5.22 µM
- TGI [7]: > 100 µM
- GI50 [9]: 31.8 µM
- TGI [9]: > 100 µM
- GI50 [10]: 16.1 µM
- TGI [10]: 56.9 µM

Structure (SMILES): O=c1[nH]c(=O)c2cc(C3CC(O)C(CO)O3)ccc2[nH]1 (centres undefined)
- GI50 [1]: > 100 µM
- TGI [1]: > 100 µM
- GI50 [2]: > 100 µM
- TGI [2]: > 100 µM
- GI50 [3]: > 100 µM
- TGI [3]: > 100 µM
- GI50 [5]: > 100 µM
- TGI [5]: > 100 µM
- GI50 [6]: 43.5 µM
- TGI [6]: > 100 µM
- GI50 [7]: > 100 µM
- TGI [7]: > 100 µM
- GI50 [8]: > 100 µM
- TGI [8]: > 100 µM
- GI50 [9]: > 100 µM
- TGI [9]: > 100 µM
- GI50 [10]: > 100 µM
- TGI [10]: > 100 µM

Structure (SMILES): COc1ccc(NC(=O)COCCOCCNC[C@@H]2C(=O)O[C@H]3[C@H]2CC/C(COC(=O)OC/C2=C/CC[C@@]4(C)O[C@H]4[C@H]4OC(=O)[C@@H](CN(C)C)[C@@H]4CC2)=C\CC[C@@]2(C)O[C@@H]32)c(O)c1C(N)=O
- GI50 [1]: 6.19 µM
- TGI [1]: 12.9 µM
- GI50 [3]: 10.2 µM
- TGI [3]: 19.1 µM
- GI50 [4]: 9.72 µM
- TGI [4]: 22.5 µM
- GI50 [5]: 5.19 µM
- TGI [5]: 12.3 µM
- GI50 [6]: 3.19 µM
- TGI [6]: 10.2 µM
- GI50 [7]: 3.56 µM
- TGI [7]: 12 µM
- GI50 [8]: 3.42 µM
- TGI [8]: 9.92 µM
- GI50 [9]: 14.3 µM
- TGI [9]: > 50 µM
- GI50 [10]: 6.1 µM
- TGI [10]: 13.2 µM

— PubChem BioAssay (NCI)
